Test results as given in patent US10328079B2, “[6R]-MTHF multiple bolus administration in 5-fluorouracil based chemotherapy” (Isofol Medical AB, priority 2017, dated 2019).
Where “and” joins values, the source holds several entries; their conditions need not be identical. Equal values may be shown once. Entries after “also recorded” stand apart in the source; their conditions may differ. Read-outs that look alike come from different tables or passages of the source.

What was measured:
solid tumors = settings: cited from earlier work
[1] = system: advanced and recurring head and neck squamous cell cancer; settings: 5-FU in combination therapies with platinum compounds; cited from earlier work
colorectal tumors = settings: cited from earlier work
colorectal cancer = settings: cited from earlier work; for ORR: Phase IIb, first-line patients, in combination with 5-FU
pancreas cancer = settings: CoFactor combined with 5-FU; cited from earlier work
[2] = system: previously untreated metastatic colorectal cancer; settings: Phase II Trial; cited from earlier work
[3] = Phase IIb, first-line patients, in combination with 5-FU; cited from earlier work
[4] = system: thymidylate synthase (TS); assay: Historical group comparison study: incremental plasma dUrd (marker of TS inhibition) 24 h after 5-FU bolus plus folate; format: in vivo, human
Experimental: The elevation of plasma 2′-deoxyuridine (dUrd) is a marker of TS inhibition. (Ford et al. (2002) Clinical Cancer Research, 8(1): 103-109).
The historical group comparison study was conducted as follows:
All patients were treated with a standard dose of 500 mg 5-FU given as a bolus injection plus the respective folate [6R]-MTHF or LV, also given as bolus injections.
In Gothenburg (Sweden), for almost two decades, clinical, treatment and outcomes data on all patients with CRC have been collected at the local university hospital (Östra sjukhuset—Sahlgrenska Universitetssjukhuset). Plasma and tissue samples have been stored in a biobank under appropriate physical conditions for long term storage. The database and the biobank operate under the auspices of the relevant ethical and regulatory permissions. Patients having been treated with the standard 5-FU dose, 500 mg/m2 plus i.v. bolus LV, 60 mg/m2 were randomly drawn from the databank. For all patients, stored plasma samples were used for determination of dUrd.
Twenty-four patients with metastatic colorectal cancer (mCRC) treated with 5-FU plus 60 mg/m^2 LV were drawn at random from the database and levels of dUrd were determined at t0 and t24 from two treatment cycles for each patient and the mean values and standard deviations for the differences between t24 and t0 were calculated in the same way as for the [6R]-MTHF patients. Since LV is a “racemic” 50:50 mixture of the natural (S-formyl-tetrahydrofolate) and unnatural (R-formyl-tetrahydrofolate) isomers, the active isomer constitutes one half of the racemic LV doses given. The molecular weights for LV and [6R]-MTHF are very similar and therefore 60 mg of LV may be considered as equimolar with 30 mg of [6R]-MTHF.
All patients were enrolled in the ISO-CC-005 study and measured during two consecutive treatment cycles with 5-FU. Values for dUrd were measured immediately before injection of 5-FU (to) and after 24 hours (t24). Mean values and standard deviations for differences between t24 and to were calculated for the patients on each dose level of 30 and 60 mg/m^2 respectively.
The differences between all three groups were tested by means of the […] and thereafter the difference between the two equimolar groups LV 60 mg/m2 and 6R-MTHF 30 mg/m^2 was tested by means of the Mann-Whitney U test. P-values less than 0.05 were considered significant.
Plasma dUrd was determined by a method comprising liquid chromatography followed by tandem mass spectrometry broadly summarized as follows. Plasma samples were removed from −80° C. freezer, trichloroacetic acid was added to the plasma, and the samples mixed and centrifuged. The supernatant was filtered in a 10 kDa molecular weight cut-off membrane filter and again centrifuged for 30 min. The solution at the bottom of the tube was then ready for LC-MS/MS analysis. Calibration samples were prepared in the same way using blank plasma samples and different internal standard concentrations. The injection volume into LC-MS/MS was 40 μl. Deoxyuridine and chlorodeoxyuridine were ionized by electrospray negative mode. MS parameters were optimized for maximum response of all folates. A MS/MS acquisition method (multiple reaction monitoring) was utilized.

[5] = ISO-CC-005 Phase I/II trial: safety / adverse events; format: in vivo, human
Description: A maximum of 63 Stage IV CRC patients eligible for 1st, 2nd or 3rd line treatment are planned to be enrolled in this study disposed as follows: three to six patients in each dose cohort, and three additional patients in one dose cohort in each treatment arm according to the following study design (Table 1). ISO-CC-005 is an open clinical phase I/II tolerability and dose definition study designed to evaluate safety and define the [6R]-MTHF dose for continued development. It evaluates four doses of [6R]-MTHF in combination with 5-FU with or without the different combinations of irinotecan or oxaliplatin and bevacizumab in patients with metastatic Colorectal Cancer using 4 different protocols: • MOD+5-FU: [6R]-MTHF in combination with 5-FU only, similar to Nordic FLV protocol • MOD+[…] in combination with 5-FU and Irinotecan, similar to Nordic FLIRI protocol • MOD+FLOX: [6R]-MTHF in combination with 5-FU and Oxaliplatin, similar to Nordic FLOX protocol • MOFOX: [6R]-MTHF in combination with 5-FU and Oxaliplatin, similar to FOLFOX-6 protocol By September 2017 the gastrointestinal (GI) adverse effects (AEs) for in total 37 patients had been analyzed. Of the 37 patients, only 2 (two) patients (5.4%) reported a GI adverse event (defined as nausea, vomiting and/or dehydration) of grade 3 or greater.

[6] = system: stage IV colorectal cancer; assay: ISO-CC-005 Phase I/II trial: tumor response according to RECIST 1.1; format: in vivo, human; settings: for ORR (objective response rate): after 8 weeks' treatment, with 5-FU
Description: As used herein, the term ORR shall refer to the Objective Response Rate, i.e. the proportion of patients with reduction in tumor burden of a predefined amount.
Complete Response (CR): • Disappearance of all target lesions. Any pathological lymph nodes (whether target or non-target) must have reduction in short axis to <10 mm.
(Note: the appearance of one or more new lesions is also considered progression).
Stable Disease (SD): • Neither sufficient shrinkage to qualify for PR nor sufficient increase to qualify for PD, taking as reference the smallest sum diameters while on study. (Eisenhauer E A, Therasse P, Bogaerts J, Schwartz L H, Sargent D, Ford R, et al. New response evaluation criteria in solid tumors: revised RECIST guideline (version 1.1). Eur J Cancer. 2009 January; 45(2):228-47)
The safety and efficacy of [6R]-5,10-methylenetetrahydrofolate ([6R]-MTHF) is analyzed in an open-label, multiple-site, Phase I/II Dose Cohort Trial (ISO-CC-005) in combination with a fixed dose of 5-Fluorouracil (5-FU) alone or together with a fixed dose of Bevacizumab, Oxaliplatin or Irinotecan in patients with stage IV colorectal cancer. A maximum of 63 Stage IV CRC patients eligible for 1st, 2nd or 3rd line treatment are planned to be enrolled in this study disposed as follows: three to six patients in each dose cohort, and three additional patients in one dose cohort in each treatment arm according to the following study design (Table 1).
[6R]-5,10-Methylenetetrahydrofolic acid ([6R]-MTHF) is formulated as a lyophylised powder containing 100 mg per vial (calculated as free acid). Dosing: Rapid i.v. bolus injections at a fixed dose of 30, 60, 120 or 240 mg/m^2, will be administered approximately 30 minutes after administration of 5-FU on Day 1 and Day 2 in each treatment cycle in all dose cohorts of the study (i.e. regardless of treatment arm). The regimen will be repeated every second week for up to eight (8) cycles, i.e. up to sixteen (16) weeks.
5-FU (5-fluorouracil) is formulated as injection solution. Dosing: 5-FU will be administered as i.v. bolus injections on Day 1 and Day 2 in each treatment cycle. In Arm #2 and Arm #3 of the study, 5-FU will be administered approximately 60 minutes after start of Oxaliplatin or Irinotecan administration, respectively (see description below). The treatment will be repeated every second week for up to eight (8) cycles, i.e. up to sixteen (16) weeks.
ISO-CC-005 is an open clinical phase I/II tolerability and dose definition study designed to evaluate safety and define the [6R]-MTHF dose for continued development. It evaluates four doses of [6R]-MTHF in combination with 5-FU with or without the different combinations of irinotecan or oxaliplatin and bevacizumab in patients with metastatic Colorectal Cancer using 4 different protocols: • MOD+5-FU: [6R]-MTHF in combination with 5-FU only, similar to Nordic FLV protocol • MOD+FLIRI: [6R]-MTHF in combination with 5-FU and Irinotecan, similar to Nordic FLIRI protocol • MOD+FLOX: [6R]-MTHF in combination with 5-FU and Oxaliplatin, similar to Nordic FLOX protocol • MOFOX: [6R]-MTHF in combination with 5-FU and Oxaliplatin, similar to FOLFOX-6 protocol
In one of the treatment protocols (MOFOX) the total dose of [6R]-MTHF was divided into two i.v. bolus injections dispensed approximately 30 and 60 minutes after the initial administration of 5-FU bolus injection (at 0 minute), respectively.
3 patients in total had at this point been treated according to the MOFOX protocol.
By December 2017 the first-line patients were assessed again after 16 weeks of treatment (16 weeks is considered the standard schedule for cancer treatment according to clinical practice guidelines for ESMO (European Society for Medical Oncology)). Four (4) 1st line patients could not be followed for the additional 8 weeks' treatment due to study protocol formalities, and no further 1st line patients had been analysed at this point.

Thymidylate Synthase = Thymidylate Synthase (Lacticaseibacillus casei, UniProt P00469); settings: cited from earlier work
[7] = of 8 first-line patients, 16 weeks
[8] = of 13 patients analyzed by August 2017, 8 weeks
[9] = of first 12 first-line patients, 8 treatment weeks

Chain of Thymidylate Synthase (P00469 whole entry): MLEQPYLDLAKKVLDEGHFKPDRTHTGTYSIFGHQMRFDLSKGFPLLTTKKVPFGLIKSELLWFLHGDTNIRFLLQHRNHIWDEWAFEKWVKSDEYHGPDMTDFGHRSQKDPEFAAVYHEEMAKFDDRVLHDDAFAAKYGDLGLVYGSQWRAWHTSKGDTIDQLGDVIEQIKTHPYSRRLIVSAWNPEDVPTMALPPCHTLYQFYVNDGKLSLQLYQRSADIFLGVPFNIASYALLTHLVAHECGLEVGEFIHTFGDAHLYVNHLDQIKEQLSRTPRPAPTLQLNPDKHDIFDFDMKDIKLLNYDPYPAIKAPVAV

O=c1[nH]cc(F)c(=O)[nH]1 [5-FU, 5-fluorouracil]
overall response rate (solid tumors; 5-FU alone): 10-15% | Response rates [1]: around 30% | survival time [1]: around 6 months | response rate (colorectal tumors; 5-FU given as a monotherapy): around 10%

Nc1nc(=O)c2c([nH]1)NCC1CN(c3ccc(C(=O)N[C@@H](CCC(=O)[O-])C(=O)[O-])cc3)CN21.[Ca+2] (stereo partly drawn) [CoFactor, (dl)-5,10,-methylenepteroyl-monoglutamate calcium salt]
efficacy and safety compared with leucovorin (colorectal cancer; Phase IIb study, colorectal cancer): no significant differences | ORR (colorectal cancer): 10.7% | clinical benefit, defined as stable disease or tumor response, patients (pancreas cancer): 40% | response rate [2]: 35% | patients reporting at least one AE of grade 3 or greater [3]: 7.7%

Nc1nc2c(c(=O)[nH]1)N(C=O)C(CNc1ccc(C(=O)N[C@@H](CCC(=O)O)C(=O)O)cc1)CN2 (stereo partly drawn) [LV, 5-formyl tetrahydrofolic acid]
overall response rates (solid tumors; LV added to 5-FU): over 20% | response rate (colorectal tumors; Leucovorin (LV) added to 5-FU): 21% | ORR (colorectal cancer): 13.3% | Mean (t24-t0) plasma dUrd ([4]; LV 60 mg/m^2 BSA (racemate; active compound 30 mg/m^2), bolus with 5-FU 500 mg/m^2, 24 hours, n=48): 48.7 pmol/mL | patients reporting at least one AE of grade 3 or greater [3]: 3.3%

Nc1nc2c(c(=O)[nH]1)N1CN(c3ccc(C(=O)N[C@@H](CCC(=O)O)C(=O)O)cc3)C[C@H]1CN2 [[6R]-MTHF, [6R]-5,10-methylenetetrahydrofolate]
safety profile compared to other patients in the study or historical control ([5]; 12 first-line patients): no signs of an impaired safety profile | patients reporting a GI adverse event (nausea, vomiting and/or dehydration) of grade 3 or greater ([5]; 37 patients analyzed by September 2017 (2 patients)): 5.4% | toxicity of 5-FU when combined with [6R]-MTHF compared to 5-FU with other folate adjuvants ([5]; ISO-CC-005 results so far): reduced | ORR ([6]; 8 remaining first-line patients, 16 weeks of treatment): 63% | ORR (objective response rate) ([6]; 12 first-line patients group): 50% | first-line patients with progressive disease (PD) ([6]; 12 first-line patients, 8 weeks): none | ORR (objective response rate) ([6]; 13 patients (12 first-line + 1 second-line), RECIST 1.1): 54% | progression of solid tumors between 8 and 16 weeks after initializing treatment ([6]; [6R]-MTHF and 5-FU, treatment period of at least 8 weeks): no patient displayed tumor progression; also recorded: No statistically significant progression | clinical benefit, defined as stable disease or partial response, treated patients ([6]; [6R]-MTHF combined with 5-FU, colorectal cancer): > 90% | ORRs achieved with initial 5-FU followed by multiple IV boluses of [6R]-MTHF ([6]; colorectal cancer patients, boluses interspaced by about 10-60 minutes): 60-80% and 60-85% | patients with partial response (PR) ([6]; group treated with at least 60 mg/m2 [6R]-MTHF, 5 out of 7 patients, 8 weeks): 71% | patients showing partial response [6, 7]: 5 patients | patients showing stable disease [6, 7]: 3 patients | patients showing partial response [6, 8]: 7 patients | patients showing stable disease [6, 8]: 6 patients | patients showing partial response (PR) [6, 9]: 6 patients | patients showing stable disease [6, 9]: 6 patients | Mean (t24-t0) plasma dUrd ([4]; [6R]-MTHF 30 mg/m^2 BSA bolus with 5-FU 500 mg/m^2, 24 hours, n=18): 74.7 pmol/mL | level of dUrd vs equimolar LV, together with 5-FU ([4]; [6R]-MTHF 30 mg/m^2 vs LV 60 mg/m^2, p=0.03): significantly higher | Mean (t24-t0) plasma dUrd ([4]; [6R]-MTHF 60 mg/m^2 BSA bolus with 5-FU 500 mg/m^2, 24 hours, n=16): 91.8 pmol/mL | TS inhibition from fixed doses of 5-FU vs [6R]-MTHF dose (dUrd) ([4]; dUrd measurements incl. 120 mg vs 240 mg, ISO-CC-005): dose dependent and flattens off att very high doses

Nc1nc2c(c(=O)[nH]1)N1CN(c3ccc(C(=O)N[C@@H](CCC(=O)O)C(=O)O)cc3)C[C@@H]1CN2 [[6S]-MTHF]
effect on the natural [6R]-isomer as co-substrate for TS (Thymidylate Synthase): partial competitive inhibitor
